In PubChem BioAssay (NCI):
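The compound was tested at five concentrations on cells cultured in 96-well plates, with a 48-hour exposure period. At the GI50, growth is halved. TGI: concentration producing complete growth inhibition.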

Tests used:
Experiment in all cases: NCI anticancer screen, dose series, 48 h
HOP-62 NSCLC = tested on: HOP-62 NSCLC
IGROV1 ovarian = tested on: IGROV1 ovarian
M14 melanoma = tested on: M14 melanoma
MOLT-4 leukemia = tested on: MOLT-4 leukemia
OVCAR-3 ovarian = tested on: OVCAR-3 ovarian
SW-620 colon = tested on: SW-620 colon
UACC-62 melanoma = tested on: UACC-62 melanoma
SNB-19 CNS = tested on: SNB-19 CNS
MDA-MB-435 = tested on: MDA-MB-435
PC-3 prostate = tested on: PC-3 prostate

Row | SMILES | TGI (HOP-62 NSCLC) [µM] | TGI (IGROV1 ovarian) [µM] | TGI (M14 melanoma) [µM] | TGI (MOLT-4 leukemia) [µM] | TGI (OVCAR-3 ovarian) [µM] | TGI (SW-620 colon) [µM] | TGI (UACC-62 melanoma) [µM] | TGI (SNB-19 CNS) [µM] | GI50 (HOP-62 NSCLC) [µM] | GI50 (IGROV1 ovarian) [µM] | GI50 (M14 melanoma) [µM] | GI50 (MOLT-4 leukemia) [µM] | GI50 (OVCAR-3 ovarian) [µM] | GI50 (SNB-19 CNS) [µM] | GI50 (SW-620 colon) [µM] | GI50 (UACC-62 melanoma) [µM] | GI50 (MDA-MB-435) [µM] | TGI (MDA-MB-435) [µM] | GI50 (PC-3 prostate) [µM] | TGI (PC-3 prostate) [µM]
1 | CC(=O)Oc1cc(OC(C)=O)c2cc3c(cc2c1OC(C)=O)C(=O)C1(CCCC1)C3=O | 42 | 32.4 | 32.1 | 15 | 34.5 | 39.4 | 30.2 | – | – | – | – | – | – | – | – | – | – | – | – | –
2 | CCCCCCCCCCCCCCCCCCOCC1(COP(=O)([O-])OCC[N+](C)(C)C)CCCO1 (stereo not given) | 9.45 | 6.63 | 8.59 | 4.84 | 15.7 | – | 21.4 | 11.1 | – | – | – | – | – | – | – | – | – | – | – | –
3 | O=C(O)C1=C(Cl)c2ccccc2S1(=O)=O | > 100 | > 100 | > 100 | > 100 | – | > 100 | > 100 | > 100 | – | – | – | – | – | – | – | – | – | – | – | –
4 | CC(=O)[CH-]C(=O)c1ccccc1.CC(=O)[CH-]C(=O)c1ccccc1.CC12CC3(C)CC(C)(C1)CC([O-])(C2)C3.CC[O-].[Ti+4] | 53.3 | > 100 | 32.8 | > 100 | > 100 | > 100 | 45.2 | 45.2 | 22.3 | 40.9 | 16.9 | 28.9 | 25.6 | 20.9 | 32.4 | 18.5 | – | – | – | –
5 | C#CCOc1cccc(Nc2ncnc3c2ncn3C2CCN(C(=O)CCl)C2)c1 (stereo not given) | > 100 | 36.7 | 48.5 | – | 31.4 | 39.1 | 35.4 | > 100 | 33.3 | 16.4 | 16.9 | – | 17.2 | 35.1 | 18.4 | 18.1 | 20.4 | 53.5 | 22.6 | 53
6 | Cn1c(=O)c2[nH]cnc2n(CC(=O)O)c1=O | > 100 | > 100 | > 100 | > 100 | > 100 | > 100 | > 100 | > 100 | – | – | – | – | – | – | – | – | – | – | – | –
7 | O/N=C1/C(=C/c2ccccc2)CCCC1C(NO)c1ccccc1 (stereo not given) | – | > 100 | > 100 | 90.8 | > 100 | > 100 | > 100 | > 100 | – | – | – | – | – | – | – | – | – | – | – | –
8 | CN(Cc1ccccc1)c1nc(=[N+](C)C)ss1 | > 100 | > 100 | > 100 | > 100 | – | > 100 | > 100 | > 100 | – | – | – | – | – | – | – | – | – | – | – | –
9 | NC(=O)N/N=C1/CCCC/C1=C\c1ccccc1 | > 100 | > 100 | > 100 | > 100 | > 100 | > 100 | > 100 | – | – | – | – | – | – | – | – | – | – | – | – | –
10 | Cc1cc(Cl)ccc1Nc1nc(C(F)(F)F)ccc1C(=O)N/N=C/c1ccc(N(C)C)cc1 | > 100 | 9.11 | 8.75 | > 100 | > 100 | > 100 | > 100 | > 100 | 2.38 | 2.03 | 1.2 | 2.22 | 0.563 | 3.08 | 2.04 | 2.29 | 4.02 | > 100 | – | –
11 | NC(=O)C12CCC1C1CCCCC12N1CCOCC1 (stereo not given) | > 100 | > 100 | > 100 | > 100 | > 100 | > 100 | > 100 | > 100 | – | – | – | – | – | – | – | – | – | – | – | –
12 | Cc1cccc(NC(=O)Cc2nc3ccccc3s2)c1C | > 100 | > 100 | > 100 | > 100 | > 100 | > 100 | > 100 | > 100 | – | – | – | – | – | – | – | – | – | – | – | –
13 | N#CNc1nc(C(=O)Nc2ccc(Cl)cc2)cc(-c2ccccc2)n1 | > 100 | > 100 | > 100 | > 100 | > 100 | > 100 | > 100 | > 100 | – | – | – | – | – | – | – | – | – | – | – | –
14 | C=C(C)C(=O)N1c2ccc(OC)cc2CC1C(=O)OCC (stereo not given) | > 100 | > 100 | > 100 | > 100 | > 100 | > 100 | > 100 | > 100 | – | – | – | – | – | – | – | – | – | – | – | > 100
15 | CC(C)(C)[Si](Nc1ccccc1)(c1ccccc1)c1ccccc1 | 31.4 | 28.3 | 27.5 | 26.2 | 27.4 | 33.6 | 22.7 | 27.1 | – | – | – | – | – | – | – | – | – | – | – | –
16 | CN(C)NC(=S)NC12CC3CC(CC(C3)C1)C2 | > 100 | > 100 | > 100 | > 100 | > 100 | > 100 | > 100 | > 100 | – | – | – | – | – | – | – | – | – | – | – | –
17 | CC(C)[C@H](O)C(=O)N[C@H]1Cc2ccc3c(c2)[C@]24C5=C(N=C(O5)[C@H](C(C)C)NC1=O)c1nc(Cl)c(o1)-c1c(Cl)[nH]c5cccc(c15)-c1cccc2c1N[C@H]4O3 | > 10 | > 10 | > 10 | > 10 | 0.00747 | > 10 | – | – | – | < 0.001 | 0.0012 | – | < 0.001 | < 0.001 | 0.0017 | – | – | – | < 0.001 | > 10
18 | C=C(CN(CCN1CCOCC1)CC(=C)c1ccc(C(=O)Nc2ccccc2N)cc1)c1ccc(C(=O)Nc2ccccc2N)cc1 | > 50 | 29.1 | > 50 | – | 39.8 | 38.5 | 10.6 | 33.4 | 9.94 | 7.37 | 15.8 | – | 10.1 | 9.18 | 8.71 | 2.48 | 8.67 | 28.5 | 15 | > 50
19 | CCCCCC/C=C/CCCCCCCc1cccc(O)c1C(=O)O | > 100 | > 100 | > 100 | > 100 | > 100 | > 100 | > 100 | > 100 | – | – | – | – | – | – | – | – | – | – | – | –
20 | O=C(Cc1nc2ccccc2s1)C(=O)Nc1ccc(Cl)cc1Cl | > 100 | > 100 | > 100 | > 100 | > 100 | > 100 | – | > 100 | – | – | – | – | – | – | – | – | – | – | – | –
21 | C[n+]1ccc2[nH]c3ccccc3c2c1 | > 100 | > 100 | > 100 | > 100 | > 100 | > 100 | > 100 | > 100 | – | – | – | – | – | – | – | – | – | – | – | –
